This passage reports Activity results from ChEMBL document CHEMBL1129900, “Synthesis and biological evaluation of 1-hydroxy-25(R and S)-25,26-Epoxy-23-yne vitamin D3 and of 1,25(R and S),26-Trihydroxy-23-yne vitamin D3” (1997).

Assay [1] concerns Mus musculus. Briefly: In vivo calcemic effect was tested in vitamin D replete normal […] mice by measuring calcium levels in serum. In kind it is functional.
The target in assay [2] is T1, Vitamin D3 receptor (Homo sapiens) (UniProt P11473).
T1 sequence (whole entry): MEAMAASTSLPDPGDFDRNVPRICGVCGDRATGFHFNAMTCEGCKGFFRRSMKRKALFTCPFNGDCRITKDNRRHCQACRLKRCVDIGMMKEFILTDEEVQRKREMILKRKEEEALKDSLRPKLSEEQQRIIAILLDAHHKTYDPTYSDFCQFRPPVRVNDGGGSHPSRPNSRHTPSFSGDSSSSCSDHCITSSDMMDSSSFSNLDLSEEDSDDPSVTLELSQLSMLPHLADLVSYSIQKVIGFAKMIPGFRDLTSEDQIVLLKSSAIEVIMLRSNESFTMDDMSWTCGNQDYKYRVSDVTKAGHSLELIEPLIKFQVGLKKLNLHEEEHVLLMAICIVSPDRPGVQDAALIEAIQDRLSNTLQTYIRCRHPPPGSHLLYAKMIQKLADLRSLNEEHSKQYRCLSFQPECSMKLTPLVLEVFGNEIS
Briefly: Relative affinity compared to Calcitriol in displacement of [3H]1H]1-alpha,25(OH)2D3 from vitamin D3 receptor in HL-60 cells. Type of assay: cell-based.

Assay [3] deals with T1, Vitamin D3 receptor (Homo sapiens). Briefly: Relative affinity compared to Calcitriol in displacement of [3H]1H]1-alpha,25(OH)2D3 from vitamin D3 receptor in […] cells. In kind it is cell-based. For orientation: Loss of bound radioactivity is the signal in a displacement assay; it reports binding, not function.
The target of assay [4] is T2, Vitamin D3 receptor (Sus scrofa) (UniProt A3RGC1).
T2 sequence (whole entry): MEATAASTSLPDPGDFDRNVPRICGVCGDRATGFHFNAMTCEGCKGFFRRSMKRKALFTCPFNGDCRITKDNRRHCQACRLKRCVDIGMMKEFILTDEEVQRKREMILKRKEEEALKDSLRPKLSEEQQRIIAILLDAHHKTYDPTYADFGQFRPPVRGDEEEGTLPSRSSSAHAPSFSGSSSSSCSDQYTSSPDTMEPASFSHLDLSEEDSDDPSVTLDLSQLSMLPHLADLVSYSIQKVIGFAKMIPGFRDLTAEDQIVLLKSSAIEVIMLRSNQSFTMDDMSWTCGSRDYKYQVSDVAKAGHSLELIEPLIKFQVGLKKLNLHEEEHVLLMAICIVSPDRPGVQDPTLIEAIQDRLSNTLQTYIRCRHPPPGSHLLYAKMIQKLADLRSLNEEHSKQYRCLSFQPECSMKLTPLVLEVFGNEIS
Briefly: Affinity for pig intestinal mucosa Vitamin D3 receptor (VDR). In kind it is tissue-based.

Assay [5] concerns the target T1, Vitamin D3 receptor (Homo sapiens). The assay is described as follows: Relative affinity compared to Calcitriol in displacement of [3H]1H]1-alpha,25(OH)2D3 from Vitamin D3 receptor in Keratinocyte cell lines.
Assay [6] has the same target. Briefly: Relative affinity compared to Calcitriol in displacement of [3H]1H]1-alpha,25(OH)2D3 from vitamin D receptor (VDR) in HL-60 cells. In kind it is functional, cell-based.
The target is the same in assay [7]. The assay is described as follows: Relative affinity compared to Calcitriol in displacement of [3H]1H]1-alpha,25(OH)2D3 from vitamin receptor (VDR) in keratinocyte cells. Type of assay: functional, cell-based.
Assay [8] has the same target. The assay is described as follows: Relative affinity compared to Calcitriol in displacement of [3H]1H]1-alpha,25(OH)2D3 from vitamin D receptor (VDR) in […] cells. Type of assay: cell-based.
Assay [9] deals with T2, Vitamin D3 receptor (Sus scrofa). Briefly: Affinity for pig intestinal mucosa vitamin D receptor (VDR).

For the compound `C=C1/C(=C/C=C2/CCC[C@]3(C)[C@@H]([C@H](C)CC#CC4(C)CO4)CC[C@@H]23)C[C@@H](O)C[C@@H]1O` (stereo not given in full), the Activity was 0.25 in assay [1]; 150% in assay [2]; 150% in assay [3]; 70 in [4]; 250% in assay [5].

With `C=C1/C(=C/C=C2/CCC[C@]3(C)[C@@H]([C@H](C)CC#C[C@](C)(O)CO)CC[C@@H]23)C[C@@H](O)C[C@@H]1O`, the Activity in [1] is 0.7; in assay [2], 150%; in [3] it was 150%; in assay [4], 70; in assay [5], 250%.

On to `C=C1/C(=C/C=C2/CCC[C@]3(C)[C@@H]([C@H](C)CC#C[C@@](C)(O)CO)CC[C@@H]23)C[C@@H](O)C[C@@H]1O`, for which the Activity is 0.1 in [1]; 150% in [2]; 150% in assay [3]; 80 in assay [4]; 250% in assay [5].

For the compound `C=C1/C(=C/C=C2/CCC[C@]3(C)[C@@H]([C@H](C)CC#C[C@@]4(C)CO4)CC[C@@H]23)C[C@@H](O)C[C@@H]1O`, the Activity is 0.3 in assay [1]; 150% in assay [2]; 150% in [3]; 60 in assay [4]; 250% in [5].

`C=C1/C(=C/C=C2/CCC[C@]3(C)[C@@H]([C@H](C)CC#C[C@]4(C)CO4)CC[C@@H]23)C[C@@H](O)C[C@@H]1O`: the Activity in assay [6] was 150%; in assay [7], 250%; in [8] it was 150%; in assay [1], 0.2; in [9], 75.
